Common to all, as to type: cell-based
Experiment [1] relates to monkey meibomian gland epithelial cells. Briefly: Effect on cell number increase in meibomian gland epithelial cells (Experimental Example 3, Cell Counting Kit-8). Particulars: medium renewed every 48 hr (3 x 48 hr), relative to non-addition group = 100%, mean ± SD, N = 5 or 10. An excerpt: An eyelid of monkey isolated and stored in D-PBS was transferred to a clean bench, and cell preparation was aseptically performed as follows.
The isolated eyelid was immersed in 80% ethanol for 30 sec, washed three times with D-PBS added with 1% penicillin-streptomycin (Invitrogen), and transferred to a minimum essential medium (MEM; Invitrogen). The adipose tissue and muscular tissue surrounding the meibomian glandular tissue of the eyelid were removed under a stereomicroscope. They were transferred to MEM containing 0.3 U/mL collagenase A (Roche Diagnostics) and 2.4 U/mL dispase II (Roche Diagnostics), and shaken at 37° C. for 4 hr and at 4° C. overnight. The enzyme-treated tissue was set under a stereomicroscope, and the eyelash and eyelid connective tissue were removed to isolate the meibomian glandular tissue. Trypsin-EDTA (4 mL, Invitrogen) was added to the isolated glandular tissue, and the mixture was incubated at 37° C. for 10 min. After incubation, MEM (5 mL) containing 10% FBS (Invitrogen) was added thereto to stop the enzyme reaction, and the tissue constituting cells were dispersed by repeated suction and discharge of the mixture 5 times using an injection syringe equipped with a 21 G injection needle. The cell dispersion was passed through 100 μm and 40 μm nylon filters (Cell Strainer; Falcon), and cell mass and the like contained therein which could not be treated with the enzyme were removed. The cell suspension passed through the filters was collected in a centrifuge tube (50 mL) and centrifuged at room temperature, 1,500 rpm for 5 min. To the cell layers containing the object cells obtained by the centrifugation was added 80 μL of D-PBS containing 0.5% bovine serum albumin (BSA; Sigma-Aldrich), and the cells were sufficiently suspended therein. Anti-Fibroblast Microbeads (Militenyi Biotec, 20 μL) was added thereto, and the mixture was left standing at room temperature for 30 min. After completion of the reaction with an antibody, 2 mL of D-PBS containing 0.5% BSA was added thereto, and the mixture was centrifuged again at room temperature, 1,500 rpm for 5 min. To the cell layers containing the object cells obtained by the centrifugation was added 1 mL of D-PBS containing 0.5% BSA, and the cells were sufficiently suspended therein. The suspension was added dropwise to LD column (Militenyi Biotec) equilibrated in advance with a column washing solution (D-PBS containing 2 mM EDTA (DOJINDO LABORATORIES) and 0.5% BSA). Then, 2 mL of the column washing solution was added dropwise to the LD column. […] The cells collected in the centrifuge tube were centrifuged at room temperature, 1,500 rpm for 5 min, and the supernatant was removed. The sediment was suspended in Defined Keratinocyte Serum Free Medium (5 mL), centrifuged at room temperature, 1,500 rpm for 5 min, and removed the supernatant. Again, the residue was suspended in DK-SFM (3 mL), centrifuged at room temperature and 1,500 rpm for 5 min, and the supernatant was removed. The cells were suspended in DK-SFM (2 mL), and seeded on a 6 well multi-well plate for cell culture, which had been treated with collagen. The seeded cells were cultured in Defined keratinocyte-Serum Free Medium (DK-SFM; Invitrogen, attached Supplement was added as instructed in the preparation protocol), cultured in an incubator (SANYO) set to 37° C., 5% CO2, 95% air, 100% humidity, and the culture medium was exchanged with a new one every 48 hr until the cells became subconfluent.
As a test substance, compound A, [4-[3-[2-(4-trifluoromethyl)phenyl-4-isopropyl-5-thiazolyl]propionyl]-2-methylphenoxy]acetic acid (hereinafter to be referred to as compound B) or [4-[3-[2-(2-hydroxy-4-chlorophenyl)-5-isopropyl-4-oxazolyl]propionyl]-2-methylphenoxy]acetic acid (hereinafter to be referred to as compound C) was used. […]
(In general: Tetrazolium dyes change colour on reduction, which living cells bring about.)

The subject of experiment [2] is Normal human corneal epithelial cells. The experiment is described as follows: Effect on increase of cell number of normal human corneal epithelial cells (Experimental Example 4, Cell Counting Kit-8). Particulars: for effect on cell number of normal human corneal epithelial cells (in words): 0.01-1 μM, conclusion of the test; for cell number increase rate: relative to non-addition group = 100%, mean ± SD, N = 4. On the procedure:
(§1) Normal human corneal epithelial cells (KURABO) were used.
As a test substance, compound B or compound C was used. Compound B and compound C were each dissolved in ethanol (Wako Pure Chemical Industries, Ltd.) to a concentration 200-fold of the final concentration in a culture medium, and the solution was stored at −80° C. until immediately before use.
As a cell culture medium for consideration of the cell number-increasing effect by compound B and compound C, a culture medium (basal medium) obtained by adding insulin, hydrocortisone and transferrin contained in HCGS growth additive set (KURABO) to EpiLife (KURABO) was used.
Normal human corneal epithelial cells cryopreserved in liquid nitrogen were thawed and the cell number was counted. The total amount thereof was transferred to EpiLife added with all of the HCGS growth additive set (insulin, epidermal growth factor mEGF derived from mouse, hydrocortisone, transferrin, bovine brain hypophysis extract) (4 mL, complete medium), and suspended well therein. The cell suspension was seeded on a fibronectin-coated 24 well plate (Becton Dickinson) at a cell number of 2×10^4 cells/500 μL/well (1×10^4 cells/cm^2 since bottom area was 2 cm^2). After completion of cell seeding, the culture plate was incubated in an incubator set to 37° C., 5% CO2, 95% air and 100% humidity for 24 hr, and the culture medium was changed to 400 μL of the basal medium (EpiLife added with insulin, hydrocortisone and transferrin from HCGS growth additives). After 24 hr thereafter, the culture medium was changed to the following culture medium (each 400 μL). • [1] basal medium alone (non-addition group) • [2] basal medium+mEGF (final concentration: 1 ng/mL; positive control group) • [3] basal medium+compound B (final concentration: 0.01 μM, 0.1 μM, 1 μM; compound B addition group) • [4] basal medium+compound C (final concentration: 0.01 μM, 0.1 μM, 1 μM; compound C addition group)
(§2) Ethanol (5 μL) was added to 1 mL each of culture media and [2] to uniformly set the ethanol concentration of all culture media to 0.5%.
(§3) After 24 hr from the start of the stimulation with compound B or compound C, the culture supernatant was removed from each well, and a basal medium added with 10% Cell Counting Kit-8 (DOJINDO) was dispensed to each well by 200 μL. After dispensing, the culture plate was transferred to an incubator set to 37° C., 5% CO2, 95% air and 100% humidity and incubated for 2 hr. The supernatant (100 μL) was transferred to a 96 well culture plate for tissue culture (Corning), and the absorbance of each well at 450 nm was measured with a microplate reader (Dainippon Sumitomo Pharma Co., Ltd.), and used as an index of cell number increase.
The values of the positive control group and the compound B or compound C addition group were calculated based on the average absorbance of the non-addition group as 100%, and the non-addition group was compared with the compound B or compound C addition group and positive control group according to the Dunnett multiple comparison test (one-tailed). A critical value of less than 5% as a result of the test was judged as significant.

Experiment [3] has the same test system. Briefly: Effect on increase of cell number of normal human corneal epithelial cells (Experimental Example 1, Cell Counting Kit-8). Particulars: positive control, final concentration 1 ng/mL, 24 hr, relative to non-addition group = 100%, mean ± SD. On the procedure: as §1
As a test substance, [3-[2-[4-isopropyl-2-(4-trifluoromethyl)phenyl-5-thiazolyl]ethyl]-5-methyl-1,2-benzisoxazol-6-yl]oxyacetic acid (hereinafter to be referred to as compound A) was used. Compound A was dissolved in ethanol (Wako Pure Chemical Industries, Ltd.) to a concentration 200-fold of the final concentration in a culture medium, and the solution was stored at −80° C. until immediately before use.
As a cell culture medium for consideration of the cell number-increasing effect by compound A, a culture medium (basal medium) obtained by adding insulin, hydrocortisone and transferrin contained in HCGS growth additive set (KURABO) to EpiLife (KURABO) was used.
Normal human corneal epithelial cells cryopreserved in liquid nitrogen were thawed and the cell number was counted. The total amount thereof was transferred to EpiLife added with all of the HCGS growth additive set (insulin, epidermal growth factor mEGF derived from mouse, hydrocortisone, transferrin, bovine brain hypophysis extract) (4 mL, complete medium), and suspended well therein. The cell suspension was seeded on a fibronectin-coated 24 well plate (Becton Dickinson) at a cell number of 2×10^4 cells/500 μL/well (1×10^4 cells/cm^2 since bottom area was 2 cm^2).
After completion of cell seeding, the culture plate was incubated in an incubator set to 37° C., 5% CO2, 95% air and 100% humidity for 24 hr, and the culture medium was changed to 400 μL of the basal medium (EpiLife added with insulin, hydrocortisone and transferrin from HCGS growth additives).
After 24 hr thereafter, the culture medium was changed to the following culture medium (each 400 μL). • [1] basal medium alone (non-addition group) • [2] basal medium+mEGF (final concentration: 1 ng/mL; positive control group) • [3] basal medium+compound A (final concentration: 0.1 nM, 1 nM, 0.01 μM, 0.1 μM; compound A addition group)
as §2
as §3, with “A,” for “B or compound C,”
The values of the positive control group and the compound A addition group were calculated based on the average absorbance of the non-addition group as 100%, and the non-addition group was compared with the compound A addition group and positive control group according to the Dunnett multiple comparison test (one-tailed). A critical value of less than 5% as a result of the test was judged as significant.

`Cc1cc(C(=O)CCc2sc(-c3ccc(C(F)(F)F)cc3)nc2C(C)C)ccc1OCC(=O)O` [compound B, [4-[3-[2-(4-trifluoromethyl)phenyl-4-isopropyl-5-thiazolyl]propionyl]-2-methylphenoxy]acetic acid]: the “cell number increase ratio” value is given as 158.8 ± 15.2% in experiment [1] (10^−6 M), 174.4 ± 8.9% in experiment [1] (10^−7 M) and 155.0 ± 28.0% in experiment [1] (10^−8 M). Also, the “effect on cell number of normal human corneal epithelial cells (in words)” value in experiment [2] is “increase the cell number of normal human corneal epithelial cells”. The “cell number increase rate” value in experiment [2] (10^−6 M, 24 hr stimulation) was 254.3 ± 11.7%; in experiment [2] (10^−7 M, 24 hr stimulation), 256.4 ± 11.0%; in experiment [2] (10^−8 M, 24 hr stimulation), 252.4 ± 34.7%.

As for `Cc1cc(C(=O)CCc2nc(-c3ccc(Cl)cc3O)oc2C(C)C)ccc1OCC(=O)O` [compound C, [4-[3-[2-(2-hydroxy-4-chlorophenyl)-5-isopropyl-4-oxazolyl]propionyl]-2-methylphenoxy]acetic acid], the “cell number increase ratio” value was found to be 179.4 ± 7.5% in experiment [1] (10^−6 M), 175.2 ± 7.8% in experiment [1] (10^−7 M) and 155.0 ± 11.6% in experiment [1] (10^−8 M). In addition, the “effect on cell number of normal human corneal epithelial cells (in words)” value in experiment [2] was “increase the cell number of normal human corneal epithelial cells”. Also, the “cell number increase rate” value is recorded as 260.2 ± 2.5% in experiment [2] (10^−6 M, 24 hr stimulation); 247.5 ± 14.1% in experiment [2] (10^−7 M, 24 hr stimulation); 243.3 ± 6.6% in experiment [2] (10^−8 M, 24 hr stimulation).

With “mEGF: epidermal growth factor mEGF derived from mouse, from HCGS growth additive set (KURABO); positive control (NSYPGCPSSYDGYCLNGGVCMHIESLDSYTCNCVIGYSGDRCQTRDLRWWELR; UniProt P01132 977-1029, looked up) [reference compound]”, the “cell number increase rate” value came out at 147.5 ± 47.2% in experiment [3] and 232.8 ± 22.5% in experiment [2] (positive control, final concentration 1 ng/mL, 24 hr).
